The source of these data is PubChem BioAssay (NCI).

Test systems include OVCAR-5 ovarian; U251 CNS; OVCAR-3 ovarian; K-562 leukemia; ACHN renal; SF-268 CNS; NCI-H226 lung; SR leukemia; MOLT-4 leukemia.
Common to all, as to test: DTP human tumour cell line panel, 48 h

Structures are written as SMILES. “And” between values parts separate entries of the source, which are not always exact repeats. Equal values may be shown once.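 In this assay, cells in 96-well plates receive the compound at five concentrations for 48 hours. Endpoints are linearly interpolated between the surrounding concentrations. GI50 is the concentration that inhibits growth by half. TGI: total growth inhibition.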

On to `O=C1C2c3[nH]c4ccccc4c3[C@@H]3CCCCCCCCCCC3C2C(=O)N1c1ccccc1` (stereo not given in full), for which the concentration for total growth inhibition (TGI) in the test with OVCAR-5 ovarian is more than 100 µM; in the test with U251 CNS, 37.8 µM; with OVCAR-3 ovarian it was 33 µM; in the test with K-562 leukemia, 29.5 µM; in the test with ACHN renal, more than 100 µM; in the test on SF-268 CNS, 48.1 µM. Besides, the TGI in the test with NCI-H226 lung worked out at 95 µM; in the test with SR leukemia, 43.3 µM.
For the molecule `C[Si](C)(C)/C=C/CCC(C=O)(CCCl)c1ccccc1` (stereo not given), the TGI with OVCAR-5 ovarian is 97.7 µM; with U251 CNS it was 33 µM; with MOLT-4 leukemia, 53.8 µM; in the test on OVCAR-3 ovarian, 38.1 µM; in the test with K-562 leukemia it was more than 100 µM; with ACHN renal, 73.2 µM. This molecule also yielded a TGI in the test with SF-268 CNS of more than 100 µM.
For the molecule `CC1=NNC(=NCCN(C)C)C/C1=C/c1ccccc1Cl`, the TGI with OVCAR-5 ovarian, in the test with U251 CNS, in the test with OVCAR-3 ovarian, in the test on ACHN renal and in the test on SF-268 CNS was more than 100 µM throughout.
`CC(C)[C@@H]1C=C(c2ccccc2)c2ccccc2C1C(C#N)(C#N)C(C)C` (stereo not given in full): the TGI in the test on OVCAR-5 ovarian, in the test with U251 CNS, in the test on MOLT-4 leukemia, with OVCAR-3 ovarian, in the test on K-562 leukemia and in the test with ACHN renal was more than 100 µM in each case. Besides, the TGI with SF-268 CNS, in the test on NCI-H226 lung and with SR leukemia was more than 100 µM each time.
With `Nc1nc2c(ncn2C2OC(CO)C(O)C2N)c(=O)[nH]1` (stereo not given), the TGI with OVCAR-5 ovarian, with U251 CNS, in the test with MOLT-4 leukemia, in the test on OVCAR-3 ovarian, in the test on K-562 leukemia and in the test with ACHN renal was more than 100 µM in each case. Further, the TGI in the test on SF-268 CNS is more than 100 µM.
As for `COC(=O)C[CH](C(=O)OC)[Ge]([CH3])([CH3])[S]c1ccccc1` (stereo not given), the GI50 was 18.7 µM in the test on OVCAR-5 ovarian; 12 µM in the test on U251 CNS; 3.37 µM in the test with MOLT-4 leukemia; 15.1 µM in the test on OVCAR-3 ovarian; 17.4 µM with K-562 leukemia; 18.4 µM in the test with ACHN renal. Also, the GI50 was 18.7 µM with SF-268 CNS and 13.8 µM in the test on NCI-H226 lung. Further, the TGI was 42.6 µM in the test on OVCAR-5 ovarian; 26.2 µM in the test on U251 CNS; 18.4 µM with MOLT-4 leukemia; 38.8 µM in the test on OVCAR-3 ovarian; more than 100 µM in the test with K-562 leukemia; 36.6 µM in the test on ACHN renal. Besides, the TGI was determined as 64.1 µM in the test with SF-268 CNS and 35.1 µM with NCI-H226 lung.
As for `CCCCCCCCCCCC(=O)OCC1OC(n2cc(F)c(=O)[nH]c2=O)C(NC(=O)OCc2ccccc2)C(O)C1O` (stereo not given), the TGI is 38.9 µM in the test on U251 CNS; 53.4 µM in the test on MOLT-4 leukemia; 68.4 µM in the test on OVCAR-3 ovarian; 52.3 µM with K-562 leukemia; more than 100 µM in the test with ACHN renal; more than 100 µM with SF-268 CNS. This molecule also came in with a TGI with SR leukemia of 41.2 µM.
In the case of `OCC(O)C(O)c1nn(-c2ccccc2)c2nc3cc(Cl)c(Cl)cc3nc12` (stereo not given), the TGI was 58.4 µM in the test with OVCAR-5 ovarian; more than 100 µM in the test on U251 CNS; more than 100 µM in the test on MOLT-4 leukemia; 92.1 µM in the test on OVCAR-3 ovarian; more than 100 µM in the test with K-562 leukemia; 75.6 µM with ACHN renal. In addition, the TGI stood at 80.5 µM with SF-268 CNS and 73.6 µM with NCI-H226 lung.
On to `COc1ccc(/C(C)=C(\c2ccc(Cl)cc2)c2ccc(OCCN3CCCC3)cc2)cc1`, for which the GI50 is 4.32 µM in the test on OVCAR-5 ovarian; 3.9 µM with U251 CNS; 3.88 µM in the test on MOLT-4 leukemia; 5.16 µM in the test with OVCAR-3 ovarian; 1.25 µM in the test with K-562 leukemia; 5.1 µM in the test on ACHN renal. In addition, the GI50 with SF-268 CNS was 4.73 µM; in the test with NCI-H226 lung, 5.54 µM. In addition, the TGI with OVCAR-5 ovarian was 8.65 µM; with U251 CNS it was 8.3 µM; in the test on MOLT-4 leukemia it was 10.9 µM; in the test on OVCAR-3 ovarian it was 9.79 µM; in the test with K-562 leukemia it was 7.23 µM; with ACHN renal it was 9.62 µM. In addition, the TGI in the test on SF-268 CNS turned out to be 9.79 µM; with NCI-H226 lung, 11.6 µM.
Take `NCCCCCS(=O)(=O)O`: the TGI with OVCAR-5 ovarian, in the test on U251 CNS, in the test on MOLT-4 leukemia, in the test on OVCAR-3 ovarian, with K-562 leukemia and in the test with ACHN renal was more than 100 µM throughout. The TGI in the test with SF-268 CNS and in the test with SR leukemia was more than 100 µM throughout.
Consider `COc1ccc2cccc(C(=O)c3ccc(C)c4c3CCC4)c2c1`, for which the TGI in the test on OVCAR-5 ovarian is more than 100 µM; in the test on U251 CNS it was more than 100 µM; with MOLT-4 leukemia it was 97.2 µM; in the test with OVCAR-3 ovarian, more than 100 µM; in the test with K-562 leukemia, more than 100 µM; with ACHN renal, more than 100 µM. Besides, the figures for the TGI in the test on SF-268 CNS, in the test on NCI-H226 lung and in the test on SR leukemia were more than 100 µM, more than 100 µM and 85.3 µM, respectively.
For `C/C1=C\[C@H](C)C[C@H](C)OC(=O)C[C@H](c2ccc(O)cc2)NC(=O)[C@@H](Cc2c(Br)[nH]c3ccccc23)N(C)C(=O)[C@H](C)NC(=O)[C@@H](C)C1`, the GI50 is 0.261 µM in the test on OVCAR-5 ovarian; 0.0328 µM in the test on U251 CNS; 0.0764 µM with MOLT-4 leukemia; 0.0393 µM with OVCAR-3 ovarian; 0.229 µM with K-562 leukemia; 0.0228 µM in the test on ACHN renal. In addition, the results for the GI50 in the test with SF-268 CNS, in the test with NCI-H226 lung and in the test with SR leukemia were 0.0352 µM, 0.0268 µM and 0.587 µM, respectively. The TGI was more than 20.3 µM in the test on OVCAR-5 ovarian; 0.859 µM and 0.74 µM in the test on U251 CNS; 4.54 µM in the test with MOLT-4 leukemia; 0.323 µM and 0.255 µM in the test with OVCAR-3 ovarian; more than 49.8 µM in the test with K-562 leukemia; 0.0894 µM in the test with ACHN renal. Also, the TGI with SF-268 CNS is 0.443 µM and 0.166 µM; in the test with NCI-H226 lung, 0.661 µM and 0.0703 µM; in the test on SR leukemia, 4.21 µM.
For `N#Cc1cccc(NC(=O)c2ccc(C(=O)O)c(C(=O)c3ccc(C(=O)O)c(C(=O)Nc4cccc(C#N)c4)c3)c2)c1`, the TGI with OVCAR-5 ovarian, with U251 CNS, in the test on MOLT-4 leukemia, in the test on OVCAR-3 ovarian, in the test on K-562 leukemia and in the test with SF-268 CNS was more than 100 µM throughout. The TGI in the test with NCI-H226 lung is more than 100 µM.
